Reference: ChEMBL document CHEMBL1155068, “Balancing oral exposure with Cyp3A4 inhibition in benzimidazole-based IGF-IR inhibitors” (Bioorg Med Chem Lett, 2008)

Assay: Metabolic stability in mouse liver microsomes
Format: ADME, Microsome

| Stability [nmol/min/mg] | Structure (SMILES) |
| --- | --- |
| < 0.1 | COCCOC(=O)N1CCN(C2CCN(c3cc(C)c4nc(-c5c(NC[C@@H](O)c6cccc(Cl)c6)cc[nH]c5=O)[nH]c4c3)CC2)CC1 |
| < 0.1 | Cc1cc(N2CCC(N3CCN(C)CC3)CC2)cc2[nH]c(-c3c(NC[C@@H](O)c4cccc(Cl)c4)cc[nH]c3=O)nc12 |
| < 0.1 | COCC(=O)N1CCN(C2CCN(c3cc(C)c4nc(-c5c(NC[C@@H](O)c6cccc(Cl)c6)cc[nH]c5=O)[nH]c4c3)CC2)CC1 |
| < 0.1 | COCCOCC(=O)N1CCN(C2CCN(c3cc(C)c4nc(-c5c(NC[C@@H](O)c6cccc(Cl)c6)cc[nH]c5=O)[nH]c4c3)CC2)CC1 |
| < 0.1 | Cc1cc(N2CCC(N3CCN(C(=O)OCCO)CC3)CC2)cc2[nH]c(-c3c(NC[C@@H](O)c4cccc(Cl)c4)cc[nH]c3=O)nc12 |
| < 0.1 | COC(=O)N1CCN(C2CCN(c3cc(C)c4nc(-c5c(NC[C@@H](O)c6cccc(Cl)c6)cc[nH]c5=O)[nH]c4c3)CC2)CC1 |
| < 0.1 | CC(=O)N1CCN(C2CCN(c3cc(C)c4nc(-c5c(NC[C@@H](O)c6cccc(Cl)c6)cc[nH]c5=O)[nH]c4c3)CC2)CC1 |
| < 0.1 | Cc1cc(N2CCC(N3CCN(C(=O)C4CC4)CC3)CC2)cc2[nH]c(-c3c(NC[C@@H](O)c4cccc(Cl)c4)cc[nH]c3=O)nc12 |

Continued, compound first:

| Structure (SMILES) | Stability [nmol/min/mg] |
| --- | --- |
| Cc1cc(N2CCOCC2)cc2[nH]c(-c3c(NC[C@@H](O)c4cccc(Cl)c4)cc[nH]c3=O)nc12 | 0.1 |
| Cc1cc(N2CCC(N3CCN(C(=O)N4CCN(C)CC4)CC3)CC2)cc2[nH]c(-c3c(NC[C@@H](O)c4cccc(Cl)c4)cc[nH]c3=O)nc12 | < 0.1 |
| Cc1cc(N2CCC(N3CCN(C(=O)N4CCOCC4)CC3)CC2)cc2[nH]c(-c3c(NC[C@@H](O)c4cccc(Cl)c4)cc[nH]c3=O)nc12 | < 0.1 |
| Cc1cc(N2CCC(NC(=O)C3CC3)CC2)cc2[nH]c(-c3c(NC[C@@H](O)c4cccc(Cl)c4)cc[nH]c3=O)nc12 | 0.1 |
| COCCOC1CCN(c2cc(C)c3nc(-c4c(NC[C@@H](O)c5cccc(Cl)c5)cc[nH]c4=O)[nH]c3c2)CC1 | 0.1 |
| Cc1cc(N2CCC(OCCO)CC2)cc2[nH]c(-c3c(NC[C@@H](O)c4cccc(Cl)c4)cc[nH]c3=O)nc12 | > 0.2 |
| Cc1cc(N2CCC3(CC2)OCCO3)cc2[nH]c(-c3c(NC[C@@H](O)c4cccc(Cl)c4)cc[nH]c3=O)nc12 | 0.1 |
| Cc1cc(N2CCC(N3CCOCC3)CC2)cc2[nH]c(-c3c(NC[C@@H](O)c4cccc(Cl)c4)cc[nH]c3=O)nc12 | 0.1 |
| Cc1cc(N2CCC(N3C[C@@H](C)O[C@@H](C)C3)CC2)cc2[nH]c(-c3c(NC[C@@H](O)c4cccc(Cl)c4)cc[nH]c3=O)nc12 | < 0.1 |
| COC1CCN(c2cc(C)c3nc(-c4c(NC[C@@H](O)c5cccc(Cl)c5)cc[nH]c4=O)[nH]c3c2)CC1 | > 0.2 |
| Cc1cc(N2CCC(O)CC2)cc2[nH]c(-c3c(NC[C@@H](O)c4cccc(Cl)c4)cc[nH]c3=O)nc12 | 0.1 |
| COC(=O)NC1CCN(c2cc(C)c3nc(-c4c(NC[C@@H](O)c5cccc(Cl)c5)cc[nH]c4=O)[nH]c3c2)CC1 | 0.1 |
